ChEMBL document CHEMBL4138306, “Potent Inhibitors of Hepatitis C Virus NS3 Protease: Employment of a Difluoromethyl Group as a Hydrogen-Bond Donor” (ACS Med Chem Lett, 2018)

Columns and labels:
[1] = AUC in Sprague-Dawley rat at 15 mg/kg, po administered via gavage or 5 mg/kg, iv administered as 10 mins infusion by LC/MS/MS analysis; assay type: ADME, organism-based; conditions: in vivo
[2] = tested on: Hepatitis C virus; assay: Antiviral activity against HCV genotype 1b Con1 infected in human HuH7.5 cells assessed as inhibition of viral replication after 4 days by luciferase reporter gene assay; assay type: functional, organism-based, Hepacivirus hominis; conditions: isolate Con1, Huh7.5, 96 h
[3] = Oral bioavailability in Sprague-Dawley rat at 15 mg/kg, administered via gavage by LC/MS/MS analysis; assay type: ADME, organism-based; conditions: in vivo
[4] = Clearance in Sprague-Dawley rat at 15 mg/kg, po administered via gavage or 5 mg/kg, iv administered as 10 mins infusion by LC/MS/MS analysis; assay type: ADME, organism-based; conditions: in vivo
[5] = Elimination half life in Sprague-Dawley rat at 15 mg/kg, po administered via gavage or 5 mg/kg, iv administered as 10 mins infusion by LC/MS/MS analysis; assay type: ADME, organism-based; conditions: in vivo, read-out: beta t1/2 (converted)
[6] = biological target: Hepatitis C virus serine protease, NS3/NS4A (Hepatitis C virus, UniProt A3EZI9+D2K2A8)
Chain of Hepatitis C virus serine protease, NS3/NS4A (D2K2A8 whole entry): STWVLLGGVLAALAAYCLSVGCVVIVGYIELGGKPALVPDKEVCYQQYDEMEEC
Chain of Hepatitis C virus serine protease, NS3/NS4A (A3EZI9 whole entry): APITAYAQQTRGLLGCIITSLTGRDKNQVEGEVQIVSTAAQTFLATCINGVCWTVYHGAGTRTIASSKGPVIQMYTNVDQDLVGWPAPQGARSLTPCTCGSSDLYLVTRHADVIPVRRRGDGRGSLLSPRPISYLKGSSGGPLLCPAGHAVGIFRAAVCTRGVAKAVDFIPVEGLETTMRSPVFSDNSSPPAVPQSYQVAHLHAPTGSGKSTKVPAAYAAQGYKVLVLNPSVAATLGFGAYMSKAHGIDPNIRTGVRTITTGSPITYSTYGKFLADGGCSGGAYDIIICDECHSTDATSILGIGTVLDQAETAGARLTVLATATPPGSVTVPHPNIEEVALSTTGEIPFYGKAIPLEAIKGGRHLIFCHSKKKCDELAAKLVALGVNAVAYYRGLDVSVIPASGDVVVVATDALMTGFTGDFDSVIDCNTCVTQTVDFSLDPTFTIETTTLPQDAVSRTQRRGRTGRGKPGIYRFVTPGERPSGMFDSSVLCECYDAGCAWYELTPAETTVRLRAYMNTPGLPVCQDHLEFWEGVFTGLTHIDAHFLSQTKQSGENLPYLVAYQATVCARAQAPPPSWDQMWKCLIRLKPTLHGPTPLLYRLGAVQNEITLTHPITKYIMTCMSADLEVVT
Description: Inhibition of recombinant full length HCV genotype 1a NS3/4A protease (1027 to 1711 residues) expressed in Escherichia coli strain BL21 (DE3) using RET S1 as substrate incubated for 1 min followed by substrate addition measured after 15 mins by FRET assay

[7] = Drug uptake in Sprague-Dawley rat liver at 15 mg/kg, po administered via gavage by LC/MS/MS analysis; assay type: ADME, organism-based; conditions: in vivo, read-out: Drug uptake
[8] = Half life in human liver microsomes by LC/MS/MS analysis; assay type: ADME, microsome
[9] = Permeability from apical to basolateral side in human Caco2 cells; assay type: ADME, cell-based; conditions: Caco-2, read-out: permeability
[10] = Permeability from basolateral to apical side in human Caco2 cells; assay type: ADME, cell-based; conditions: Caco-2, read-out: permeability

SMILES | EC50 [2] [nM] | IC50 [6] [nM] | half-life [8] [h] | also measured
C=C[C@@H]1C[C@]1(NC(=O)[C@@H]1C[C@@H](Oc2ncc(OC)c3ccc(Cl)cc23)CN1C(=O)[C@@H](NC(=O)OC(C)(C)C)C(C)(C)C)C(=O)NS(=O)(=O)C1CC1 | – | – | – | AUC at 10 min [1]: 1 µM·h
COc1cnc(O[C@@H]2C[C@@H](C(=O)N[C@]3(C(=O)NS(=O)(=O)C4CC4)C[C@H]3C3CC3)N(C(=O)[C@@H](NC(=O)OC(C)(C)C)C(C)(C)C)C2)c2cc(Cl)ccc12 | 18.3 | 6 | – | bioavailability [3]: 34 to 44.2%; clearance [4]: 5.2 mL/min/kg; AUC at 10 min [1]: 19.6 µM·h; half-life [5]: 6 to 10 h
CC[C@@H]1C[C@]1(NC(=O)[C@@H]1C[C@@H](Oc2ncc(OC)c3ccc(Cl)cc23)CN1C(=O)[C@@H](NC(=O)OC(C)(C)C)C(C)(C)C)C(=O)NS(=O)(=O)C1CC1 | 16 | 5 | – | AUC at 10 min [1]: 6.89 µM·h; concentration [7]: 40.3 µM
COc1cnc(O[C@@H]2C[C@@H](C(=O)NC3(C(=O)NS(=O)(=O)C4CC4)CC3)N(C(=O)[C@@H](NC(=O)OC(C)(C)C)C(C)(C)C)C2)c2cc(Cl)ccc12 | 336 | 40 | 2 | –
COc1cnc(O[C@@H]2C[C@@H](C(=O)N[C@@H](CC(F)F)C(=O)NS(=O)(=O)C3CC3)N(C(=O)[C@@H](NC(=O)OC(C)(C)C)C(C)(C)C)C2)c2cc(Cl)ccc12 | 509 | 976 | – | –
COc1cnc(O[C@@H]2C[C@@H](C(=O)N[C@]3(C(=O)NS(=O)(=O)C4CC4)C[C@H]3C(F)F)N(C(=O)[C@@H](NC(=O)OC(C)(C)C)C(C)(C)C)C2)c2cc(Cl)ccc12 | 7.6 to 8 | – | 2 | bioavailability [3]: 0.9%; clearance [4]: 58 mL/min/kg; AUC at 10 min [1]: 0.05 µM·h; half-life [5]: 2.6 h; concentration [7]: 0.27 µM; Papp A→B [9]: < 1.5 ×10⁻⁶ cm/s; Papp B→A [10]: 4.7 ×10⁻⁶ cm/s
COc1cnc(O[C@@H]2C[C@@H](C(=O)NC3(C(=O)NS(=O)(=O)C4CC4)CCC3)N(C(=O)[C@@H](NC(=O)OC(C)(C)C)C(C)(C)C)C2)c2cc(Cl)ccc12 | 1280 | 261 | – | –
CC[C@@H](NC(=O)[C@@H]1C[C@@H](Oc2ncc(OC)c3ccc(Cl)cc23)CN1C(=O)[C@@H](NC(=O)OC(C)(C)C)C(C)(C)C)C(=O)NS(=O)(=O)C1CC1 | > 1000 | 7980 | – | –
COc1cnc(O[C@@H]2C[C@@H](C(=O)N[C@H](CC(F)F)C(=O)NS(=O)(=O)C3CC3)N(C(=O)[C@@H](NC(=O)OC(C)(C)C)C(C)(C)C)C2)c2cc(Cl)ccc12 | > 1000 | 2480 | – | –
COc1cnc(O[C@@H]2C[C@@H](C(=O)N[C@]3(C(=O)NS(=O)(=O)C4CC4)C[C@H]3C(F)(F)F)N(C(=O)[C@@H](NC(=O)OC(C)(C)C)C(C)(C)C)C2)c2cc(Cl)ccc12 | 125 | 17 | 0.783 | –
COc1ccc2c(O[C@@H]3C[C@@H](C(=O)NC(CC(F)F)C(=O)NS(=O)(=O)C4CC4)N(C(=O)[C@@H](NC(=O)OC(C)(C)C)C(C)(C)C)C3)cc(-c3ccccc3)nc2c1 (stereo partly drawn) | – | > 1000 | – | –
COc1cnc(O[C@@H]2C[C@@H](C(=O)NC(C)(C)C(=O)NS(=O)(=O)C3CC3)N(C(=O)[C@@H](NC(=O)OC(C)(C)C)C(C)(C)C)C2)c2cc(Cl)ccc12 | > 1000 | 2190 | – | –
CC[C@H](NC(=O)[C@@H]1C[C@@H](Oc2ncc(OC)c3ccc(Cl)cc23)CN1C(=O)[C@@H](NC(=O)OC(C)(C)C)C(C)(C)C)C(=O)NS(=O)(=O)C1CC1 | > 1000 | 3080 | – | –
C=CC[C@](C)(NC(=O)[C@@H]1C[C@@H](Oc2ncc(OC)c3ccc(Cl)cc23)CN1C(=O)[C@@H](NC(=O)OC(C)(C)C)C(C)(C)C)C(=O)NS(=O)(=O)C1CC1 | 23000 | 33000 | 0.892 | –
COc1cnc(O[C@@H]2C[C@@H](C(=O)N[C@]3(C(=O)NS(=O)(=O)C4CC4)C[C@H]3C)N(C(=O)[C@@H](NC(=O)OC(C)(C)C)C(C)(C)C)C2)c2cc(Cl)ccc12 | 64 | 13 | 1.6 | –
COc1cnc(O[C@@H]2C[C@@H](C(=O)N[C@]3(C(=O)NS(=O)(=O)C4CC4)C[C@H]3CC(F)F)N(C(=O)[C@@H](NC(=O)OC(C)(C)C)C(C)(C)C)C2)c2cc(Cl)ccc12 | 31 | 14 | 3.33 | –
